{
  "source": "patent US10660933B2",
  "about": "“Compositions and methods for inhibition of bacterial infections in human endocervix” (priority 2015, dated 2020)",
  "key": {"[1]": {"tested_on": "Neisseria gonorrhoeae MS11ΔOpa", "test": "Ng subepithelial penetration in human endocervical tissue explants (3D-CFM)", "format": "cell-based", "conditions": "MS11ΔOpa, 24 h; ML-7 10 μM or PIK 100 μM; 27% without inhibitor", "procedure": "Human endocervical tissue explants. The tissue explants were cultured as previously described. Endocervical tissues were obtained from patients undergoing voluntary hysterectomies and received within 24 h post-surgery. Samples were cut into ˜2.5 cm (L)×0.6 cm (W)×0.3 cm (H) pieces, incubated in CMRL-1066 (GIBCO, Gaithersburg, Md.) plus antibiotics for 24 h, and then switched to antibiotic-free media for 24 h.\nImmunofluorescence analysis of human endocervical tissue explants. Individual endocervical tissue pieces were incubated with Ng at a MOI of ˜10 (based on the average number of endocervical epithelial cells in endocervical tissue pieces) in the presence or absence of the MLCK inhibitor ML-7 (10 μM, EMD Millipore) and PIK (100 μM) (54) on transwells for 24 h. Unassociated Ng were removed by extensive washes at 6 and 12 h. The tissue was fixed, embedded in gelatin, cryopreserved, sectioned crossing the apical and basolateral surfaces of the epithelium, stained for ZO1 (BD Bioscience), pMLC (Cell Signaling Technology, Beverly, Mass.), and Ng (51) by specific antibodies, and nuclei by DAPI (Life Technologies, Carlsbad, Calif.), and analyzed using CFM (Zeiss LSM 710, Carl Zeiss Microscopy LLC, Oberkochen, Germany). […]\nTo quantify epithelial exfoliation, the number of Ng associated cells localized on the top of the epithelial monolayer (exfoliated) and the total number of Ng associated epithelial cells was counted by visual inspection in each randomly acquired image, to determine the percentage of exfoliated cells. To estimate the level of Ng penetration into the subepithelium, the number of non-exfoliated epithelial cells (in clearly visible epithelial monolayers) with basal Ng staining and the total number of Ng associated epithelial cells were visually counted to calculate the percentage of infected epithelial cells with Ng penetration into the basolateral side. […] To quantify the redistribution of pMLC, the fluorescence intensity ratios (FIR) of pMLC staining at the apical to lateral in individual epithelial cells were determined using average FI as previously described."}, "ZO1": {"tested_on": "ZO1", "test": "ZO1 distribution and cell morphology in Ng-infected human endocervical tissue explants", "format": "cell-based", "conditions": "MS11ΔOpa 24 h, ML-7 10 μM", "description": "We determined if MS11ΔOpa can induce the disruption of the apical junction in human endocervical tissue. Sections of uninfected and infected tissue explants were stained for the junctional protein ZO1, Ng, and DNA and analyzed by 3D-CFM (FIG. 4G). We quantified junction disruption by determining the percentage of Ng associated epithelial cells that lost continuous apical staining of ZO1, using 3D reconstituted confocal images (FIG. 4G, right panels). […] In contrast to the recruitment of ZO1 to epithelial cells neighboring exfoliating cells in uninfected monolayers, no accumulation of ZO1 staining was observed around Ng infected exfoliating cells (FIG. 4I, arrows). […] Treatment with the MLCK inhibitor ML-7 restored both the morphology (FIG. 4G left panels) and apical distribution of ZO1 (FIG. 4H).\nImmunofluorescence analysis of human endocervical tissue explants. […] The tissue was fixed, embedded in gelatin, cryopreserved, sectioned crossing the apical and basolateral surfaces of the epithelium, stained for ZO1 (BD Bioscience), pMLC (Cell Signaling Technology, Beverly, Mass.), and Ng (51) by specific antibodies, and nuclei by DAPI (Life Technologies, Carlsbad, Calif.), and analyzed using CFM (Zeiss LSM 710, Carl Zeiss Microscopy LLC, Oberkochen, Germany). […]"}},
  "data": [
    {"smiles": "O=S(=O)(c1cccc2c(I)cccc12)N1CCCNCC1", "note": "[ML-7]", "values": [
      {"measurement": "percentage of epithelial cells with basally associated Ng", "setting": "[1]", "result": 7.1, "unit": "%"},
      {"measurement": "apical distribution of ZO1", "setting": "ZO1", "result": "restored"},
      {"measurement": "morphology of endocervical epithelial cells", "setting": "ZO1", "result": "restored"}
    ]}
  ]
}
